# Assays:
# Assay type in all cases: physicochemical
# [1] = Complexometric stability test (equimolar EDTA) evaluated by relaxometry; details: 1 mM Mn standard + equimolar EDTA, pH 7±0.5, 60 MHz, 37° C.
# Description: Measure the longitudinal relaxivity of a nanostructure solution (r1(ns)) having a concentration of 1 mM Mn. Prepare another nanostructure solution containing 1 mM Mn and add an equivalent molar amount of EDTA. The pH of this solution must be adjusted to pH 7±0.5, if necessary. Measure the longitudinal relaxivity of this nanostructure solution with added EDTA (r1(ns+EDTA)). As a reference material, 1 mM solution using a Manganese Standard for AAS (Fluka 77036) is prepared, added an equimolar amount of EDTA, and pH adjusted to pH 7±0.5. The longitudinal relaxivity is measured (r1(Mn+EDTA)) and resulted to a value of 1.6 mM^−1s^−1. To calculate the % Mn-released from the nanostructure after addition of equivalent EDTA:
# [formula] Note: Relaxation (T1, in seconds) is measured using the Minispec mq60 NMR analyzer (60 MHz) at 37° C. and relaxivity r1 is calculated using:
# [formula] where T1 H2O=[…]; c1=1 mM.
# [2] = Hydrodynamic diameter by dynamic light scattering (DLS), volume average; details: aqueous solution
# Description: The term “DLS” as used herein is an acronym for dynamic light scattering, a particle sizing method, and may also be referred to as Photon Correlation Spectroscopy or Quasi-Elastic Light Scattering. The DLS sizes given as stated in the text and in the claims, if nothing else is specified, refers to the position of the maximum of the volume average peak for a sample measured at 25° C. in neutral aqueous solution with an ionic strength corresponding to 150 mM NaCl.
# The hydrodynamic diameter referred to, is the diameter of the equivalent hard sphere as calculated from the diffusion coefficient, according to the Stokes-Einstein equation. The diffusion coefficient is in turn calculated from the time dependent light scattering data obtained by the Dynamic Light Scattering (DLS) technique. As a comparison, bovine serum albumin is measured to have a hydrodynamic diameter of 6.5 nm by DLS in aqueous solution, very much in agreement with the crystal structure. Depending on whether the number average, volume average, or scattered intensity average is used, the values may be somewhat different. […] The average diameters referred to in this text refers to volume averages.
# [3] = Relaxivity (r1, r2) measurement at 1.91 T (81.33 MHz); details: in H2O @ 25 C.
# From the text: Furthermore, the effect of a compound on the T1 is given as the relaxivity so a high relaxivity gives a stronger signal enhancement. The relaxivity (r) is frequency dependent in a structure dependent way which complicates the comparison of data from the literature from different sources. The clinical MRI scanners usually have a magnetic field of 1.5 or 3 Tesla so we have measured our relaxivities at 1.91 T, corresponding to a proton resonance frequency of 81.3 MHz, as a reasonable compromise. Measurements may also be done at other frequencies, such as 60 MHz. The relaxivity for the commercially available gadolinium based contrast agents are close to 4/mMGd/s at the clinically relevant fields.
compound,measurement,setting,value
Mn+EDTA,longitudinal relaxivity r1(Mn+EDTA),[1],1.6 mM⁻¹ s⁻¹
bovine serum albumin: size comparison for DLS,hydrodynamic diameter by DLS,[2],6.5 nm
[Cl][Mn][Cl] [MnCl2],r1,[3],5.8

# Reference: US9040637B2, “Manganese comprising nanostructures” (SPAGO IMAGING AB, priority 2011, dated 2015)
